One data set deals with Autotaxin (Homo sapiens, UniProt Q13822). Kind of data set: Inhibition of autotaxin (unknown origin).
A short description of data set [1]: Inhibition of beta-lactamase AmpC (unknown origin). Also on record: species or system Bacteria.
The next data set concerns Escherichia coli. Kind of data set: Antibacterial activity against Escherichia coli. The data set is classed as functional.
The test system of a further data set is MCF7. Kind of data set: Antiproliferative activity against human MCF7 cells assessed as inhibition of cell growth incubated for 48 hrs by SRB assay. The data set is classed as functional, cell-based. Conditions: MCF7, 48 h. (In general: The SRB assay estimates cell density from bound dye.)
The nature of data set [2]: Solubility of compound at pH 2. The data set is classed as physicochemical. Conditions: buffer.
The target of another data set is T1, Neutrophil elastase (Homo sapiens, UniProt P08246).
T1 sequence (P08246 whole entry): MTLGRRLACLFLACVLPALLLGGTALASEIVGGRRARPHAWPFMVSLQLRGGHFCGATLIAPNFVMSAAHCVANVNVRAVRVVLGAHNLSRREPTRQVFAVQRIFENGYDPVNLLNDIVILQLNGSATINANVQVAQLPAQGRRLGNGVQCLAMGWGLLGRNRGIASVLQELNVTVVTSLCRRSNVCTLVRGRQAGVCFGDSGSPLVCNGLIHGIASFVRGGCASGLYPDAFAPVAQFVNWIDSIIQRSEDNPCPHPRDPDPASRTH
As to the kind of experiment: Inhibition of human neutrophil elastase.

For data set [3], the target named is Human immunodeficiency virus type 1 protease (Human immunodeficiency virus 1, UniProt Q72874). As to the kind of experiment: Inhibition of HIV-1 protease.
Data set [4] has as its system Human immunodeficiency virus. As to the kind of experiment: Antiviral activity against HIV infected in human MT-2 cells. The data set is classed as functional, organism-based. Conditions: Human immunodeficiency virus 1, MT2.

9 molecules from ChEMBL document CHEMBL5233243, “Design and discovery of boronic acid drugs” (Eur J Med Chem, 2020) can be followed below.

As usually defined, the IC50 is the midpoint of a concentration-inhibition curve. The term Ki denotes a measure of affinity in units of concentration, obtained from inhibition or displacement. Low readings indicate a stronger hold on the target, high ones a looser hold on the target. Broadly, the MIC is the smallest concentration in the dilution series that meets the test's criterion for growth inhibition. A higher MIC goes with weaker potency. A word on the solubility: it is how much of the substance goes into solution per volume. A lower solubility goes with a poorly soluble substance.

In brackets after ≈: the same amount, converted by molar mass. Residues, ends and D or L forms follow the SMILES beside them. *: point of attachment. CF3 = FC(F)(F)*; Moc = COC(=O)*

For `COc1cc(/C=C2\SC(=O)N(Cc3ccc(F)cc3)C2=O)ccc1OCc1ccc(B(O)O)cc1`, at Autotaxin, the IC50 was 28 nM.

On to `OB(O)c1cnn(-c2cc(Cl)ncn2)c1`, for which the affinity in data set [1], expressed as Ki, was 10 nM. The same molecule displayed an MIC against Escherichia coli of 1 µg/mL (≈ 4.46 µM).

As for `COc1ccc(/C=C\c2cc(OC)c(OC)c(OC)c2)cc1O` [COMBRETASTATIN A4], the IC50 with MCF7 amounted to 32 nM. Also, the concentration in solution in data set [2] (solubility) was 18.9 µg/mL (≈ 59.7 µM).

In data set [2], `COc1ccc(/C=C\c2cc(OC)c(OC)c(OC)c2)cc1B(O)O` returned a solubility of 33.8 µg/mL (≈ 98.2 µM).

Consider `COC(=O)N[C@H](C(=O)N1CCC[C@H]1C(=O)N[C@H](B(O)O)C(C)C)C(C)C`, for which the midpoint of inhibition on Neutrophil elastase, the IC50, lay at 0.27 nM.

`COC(=O)N[C@H](C(=O)N1CCC[C@H]1C(=O)N[C@H](C(=O)C(F)(F)F)C(C)C)C(C)C` (Moc-Val-Pro-Val-CF3) returned an IC50 against Neutrophil elastase of 135 nM.

`O=S(=O)(Cc1ccc(-c2nnn[nH]2)nc1)NCB(O)O` registered a Ki in data set [1] of 0.8 nM.

`CC(C)CN(C[C@@H](O)[C@H](Cc1ccccc1)NC(=O)O[C@H]1CO[C@H]2OCC[C@H]21)S(=O)(=O)c1ccc(C(=O)O)cc1`: the affinity in data set [3], expressed as Ki, was 0.0129 nM. In data set [4], this molecule gave an IC50 greater than 1000 nM.

In data set [3], `CC(C)CN(C[C@@H](O)[C@H](Cc1ccccc1)NC(=O)OC1C2COC3OCC1C3C2)S(=O)(=O)c1ccc(B(O)O)cc1` (stereo partly drawn) registered a Ki of 0.0155 nM. The molecule also came in with an IC50 in data set [4] of 37.7 nM.
